Reference: patent publication US9334269B2, “Carboxamides as inhibitors of voltage-gated sodium channels” (AMGEN INC., priority 2010, dated 2016)

Biological target: T1, human Nav1.7 (hNav1.7) (Homo sapiens, UniProt Q15858)
T1 construct: expressed in transfected cells
Test: hNav1.7 whole-cell patch-clamp electrophysiology (automated PatchXpress 7000A or manual) in stably expressing 293 cells
Assay type: cell-based
Details: average IC50
How it was run: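 Stably transfected 293 cells lacking endogenous sodium channels; peak current evoked by depolarizing pulses during increasing compound concentrations, automated at ~20% fractional inactivation, or manually at −140 mV (resting) and ~20% inactivation. Block taken at steady state, corrected for rundown; IC50 by Hill fit.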

T1 sequence (Q15858 whole entry): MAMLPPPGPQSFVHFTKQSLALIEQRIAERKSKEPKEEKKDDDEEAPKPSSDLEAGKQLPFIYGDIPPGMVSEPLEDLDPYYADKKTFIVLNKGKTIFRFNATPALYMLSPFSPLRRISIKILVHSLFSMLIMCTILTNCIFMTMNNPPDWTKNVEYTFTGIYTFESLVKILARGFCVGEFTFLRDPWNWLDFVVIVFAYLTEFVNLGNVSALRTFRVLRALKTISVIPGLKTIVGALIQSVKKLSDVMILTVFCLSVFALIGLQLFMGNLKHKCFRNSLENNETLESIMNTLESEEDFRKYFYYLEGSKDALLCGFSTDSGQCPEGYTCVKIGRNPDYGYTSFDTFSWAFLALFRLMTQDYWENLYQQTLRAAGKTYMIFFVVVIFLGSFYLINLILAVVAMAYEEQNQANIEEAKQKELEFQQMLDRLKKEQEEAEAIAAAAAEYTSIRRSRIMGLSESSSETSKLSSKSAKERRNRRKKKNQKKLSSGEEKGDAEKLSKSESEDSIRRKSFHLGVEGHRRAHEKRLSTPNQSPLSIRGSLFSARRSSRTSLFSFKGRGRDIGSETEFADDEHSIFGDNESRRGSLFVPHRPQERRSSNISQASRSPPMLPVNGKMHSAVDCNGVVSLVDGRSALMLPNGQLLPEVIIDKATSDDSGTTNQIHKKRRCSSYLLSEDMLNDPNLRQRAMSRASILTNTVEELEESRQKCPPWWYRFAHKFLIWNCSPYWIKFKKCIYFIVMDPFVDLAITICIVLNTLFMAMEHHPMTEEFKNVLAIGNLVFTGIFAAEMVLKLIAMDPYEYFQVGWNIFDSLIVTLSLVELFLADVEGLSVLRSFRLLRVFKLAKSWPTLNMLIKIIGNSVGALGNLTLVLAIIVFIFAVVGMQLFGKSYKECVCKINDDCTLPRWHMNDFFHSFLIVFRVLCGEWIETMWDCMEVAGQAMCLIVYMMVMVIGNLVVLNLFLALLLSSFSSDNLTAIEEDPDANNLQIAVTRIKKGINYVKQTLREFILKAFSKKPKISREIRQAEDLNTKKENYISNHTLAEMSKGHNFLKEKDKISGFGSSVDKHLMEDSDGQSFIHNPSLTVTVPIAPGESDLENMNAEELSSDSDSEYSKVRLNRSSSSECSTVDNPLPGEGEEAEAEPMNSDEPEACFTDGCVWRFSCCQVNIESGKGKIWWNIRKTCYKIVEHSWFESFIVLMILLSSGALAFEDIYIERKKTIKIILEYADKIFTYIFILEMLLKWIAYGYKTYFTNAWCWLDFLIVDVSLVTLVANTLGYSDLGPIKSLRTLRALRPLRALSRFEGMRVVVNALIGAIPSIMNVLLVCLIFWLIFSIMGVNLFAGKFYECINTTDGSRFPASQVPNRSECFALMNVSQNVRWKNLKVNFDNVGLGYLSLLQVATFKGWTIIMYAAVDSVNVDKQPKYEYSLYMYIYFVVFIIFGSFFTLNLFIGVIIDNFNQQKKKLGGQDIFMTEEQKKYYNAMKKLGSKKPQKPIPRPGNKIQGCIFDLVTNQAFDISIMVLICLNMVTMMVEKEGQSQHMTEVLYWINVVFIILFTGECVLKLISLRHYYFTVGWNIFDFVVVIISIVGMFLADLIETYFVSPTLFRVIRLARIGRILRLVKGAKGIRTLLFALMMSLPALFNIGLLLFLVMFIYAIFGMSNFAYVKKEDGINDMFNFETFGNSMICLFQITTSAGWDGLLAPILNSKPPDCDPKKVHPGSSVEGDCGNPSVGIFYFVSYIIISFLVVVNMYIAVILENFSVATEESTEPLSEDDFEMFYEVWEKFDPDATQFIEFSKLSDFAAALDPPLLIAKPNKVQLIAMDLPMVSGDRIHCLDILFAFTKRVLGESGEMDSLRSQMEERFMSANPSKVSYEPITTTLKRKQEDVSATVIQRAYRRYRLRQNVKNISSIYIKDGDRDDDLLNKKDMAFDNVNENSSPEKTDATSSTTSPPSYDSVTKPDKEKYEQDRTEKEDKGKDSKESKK

SMILES	IC50
CNC(=O)c1cc(Nc2ncnc(N3CC(Oc4ccc(F)cc4)C3)n2)ccc1C [Example 266]	19.7 µM
Cc1c(Nc2ncnc(N3CCC(OCc4ccc(OC(F)(F)F)cc4)CC3)n2)cccc1C(N)=O [Example 267]	20.9 µM
CNC(=O)c1cccc(Nc2ncnc(N3CCc4c(cnn4-c4ccccc4)C3)n2)c1 [Example 268]	20.9 µM
CNC(=O)c1cccc(Nc2ncnc(N3CCc4cccc(C(F)(F)F)c4C3)n2)c1 [Example 269]	21 µM
CNC(=O)c1cccc(Nc2ncnc(N3CC(Oc4ccc(F)cc4)C3)n2)c1F [Example 270]	21.1 µM
CNC(=O)c1cccc(Nc2ncnc(N3CCN(c4ccc(F)c(Cl)c4)CC3)n2)c1 [Example 271]	21.4 µM
CNC(=O)c1cccc(Nc2ncnc(N3CC(OCc4ccc(F)cc4)C3)n2)c1 [Example 272]	21.7 µM
CNC(=O)c1cccc(Nc2ncnc(N3CC(C)(COc4ccccc4)C3)n2)c1 [Example 273]	22.1 µM
CNC(=O)c1cccc(Nc2ncnc(N3CC(Oc4c(F)cccc4F)C3)n2)c1 [Example 274]	22.1 µM
CNC(=O)c1cccc(Nc2ncnc(N3CCc4cc(OCC(F)(F)F)ccc4C3)n2)c1C [Example 275]	22.6 µM
CNC(=O)c1cccc(Nc2ncnc(N3CC(COc4ccccc4C(F)(F)F)C3)n2)c1 [Example 276]	23.6 µM
CNC(=O)c1cccc(Nc2ncnc(N3CCC(OCc4cccc(OC(F)(F)F)c4)CC3)n2)c1 [Example 277]	25.4 µM
CNC(=O)c1cccc(Nc2ncnc(N3CCCC(Oc4cccc(Cl)c4)C3)n2)c1 (stereo not drawn) [Example 278]	26 µM
CNC(=O)c1cccc(Nc2ncnc(N3CCc4ccc(Cl)cc4C3)n2)c1 [Example 279]	26.4 µM
CNC(=O)c1cccc(Nc2ncnc(N(C)Cc3nc(-c4ccccc4)no3)n2)c1 [Example 280]	27.7 µM
CNC(=O)c1cccc(Nc2ncnc(N3CCc4cccc(OC)c4C3)n2)c1 [Example 281]	27.9 µM
CNC(=O)c1cc(F)cc(Nc2ncnc(NCCCOc3ccc(OC(F)(F)F)cc3)n2)c1 [Example 282]	> 30 µM

SMILES	IC50
CNC(=O)c1ccc(OC)c(Nc2ncnc(N3CC(Oc4ccc(Cl)cc4)C3)n2)c1 [Example 283]	> 30 µM
CNC(=O)c1cccc(Nc2nc(C)nc(N3CC(Oc4ccc(F)cc4)C3)n2)c1 [Example 284]	> 30 µM
CNC(=O)c1cccc(Nc2ncc(F)c(N3CC(Oc4ccc(F)cc4)C3)n2)c1 [Example 285]	> 30 µM
CNC(=O)c1cccc(Nc2ncnc(NCc3cn4cc(C)ccc4n3)n2)c1 [Example 286]	> 30 µM
CNC(=O)c1cccc(Nc2ncnc(NCCc3nnc(-c4ccc(C)s4)o3)n2)c1 [Example 287]	> 30 µM
CNC(=O)c1cccc(Nc2ncnc(NCCc3nc4cc(Cl)ccc4[nH]3)n2)c1 [Example 288]	> 30 µM
CNC(=O)c1cccc(Nc2ncnc(NCc3noc(C(=O)NC4CC4)n3)n2)c1 [Example 289]	> 30 µM
CCN1C(=O)C2(CCN(c3ncnc(Nc4cccc(C(=O)NC)c4)n3)CC2)c2ccccc21 [Example 290]	> 30 µM
NC(=O)c1cc(Nc2ncnc(N3CC(Oc4ccc(F)cc4)C3)n2)ccc1F [Example 291]	> 30 µM
CNC(=O)c1cccc(Nc2ncnc(N3CCc4cc(C(O)C(F)(F)F)ccc4C3)n2)c1 (stereo not drawn) [Example 292]	> 30 µM
Cc1c(Nc2ncnc(N3CCc4cc(Br)ccc4C3)n2)cccc1C(N)=O [Example 293]	> 30 µM
CNC(=O)c1cccc(Nc2ncnc(N3CCC(CCCc4ccccc4)CC3)n2)c1 [Example 294]	> 30 µM
Cc1ccc(N2CCN(c3ncnc(Nc4ccc(F)c(C(N)=O)c4)n3)CC2)cc1C [Example 295]	> 30 µM
CNC(=O)c1cccc(Nc2ncnc(N3CCC(OCC(C)C)CC3)n2)c1 [Example 296]	> 30 µM
CNC(=O)c1cccc(Nc2ncnc(N3CC(Oc4ccccc4C#N)C3)n2)c1 [Example 297]	> 30 µM
CNC(=O)c1cccc(Nc2ncnc(N3CCc4ccc(C(F)(F)F)cc4C3)n2)c1 [Example 298]	> 30 µM
